Reference: ChEMBL document CHEMBL4346699 (Eur J Med Chem, 2019)

Columns and labels:
[1] = AUC (0 to 7 hrs) in Sprague-Dawley rat at 1 mg/kg, iv by LC-MS/MS analysis; assay type: ADME, organism-based; parameters: dose 1 mg/kg, time < 7 hr, route intravenous; settings: in vivo
[2] = Clearance in Sprague-Dawley rat at 1 mg/kg, iv by LC-MS/MS analysis; assay type: ADME, organism-based; settings: in vivo
[3] = Volume of distribution at steady state in Sprague-Dawley rat at 1 mg/kg, iv by LC-MS/MS analysis; assay type: ADME, organism-based; settings: in vivo, read-out: Vdss
[4] = Half life in Sprague-Dawley rat at 1 mg/kg, iv by LC-MS/MS analysis; assay type: ADME, organism-based; settings: in vivo
[5] = AUC (0 to 7 hrs) in Sprague-Dawley rat at 5 mg/kg, po by LC-MS/MS analysis; assay type: ADME, organism-based; parameters: dose 5 mg/kg, time < 7 hr, route oral; settings: in vivo
[6] = Tmax in Sprague-Dawley rat at 5 mg/kg, po by LC-MS/MS analysis; assay type: ADME, organism-based; settings: in vivo
[7] = Oral bioavailability in Sprague-Dawley rat at 5 mg/kg by LC-MS/MS analysis; assay type: ADME, organism-based; settings: in vivo
[8] = Metabolic stability in human microsomes assessed as parent compound remaining after 0 mins; assay type: ADME, Microsome; settings: read-out: Stability
[9] = Metabolic stability in rat microsomes assessed as parent compound remaining after 0 mins; assay type: ADME, Microsome; settings: read-out: Stability
[10] = Metabolic stability in human microsomes assessed as parent compound remaining after 5 mins; assay type: ADME, Microsome; settings: read-out: Stability
[11] = Metabolic stability in rat microsomes assessed as parent compound remaining after 5 mins; assay type: ADME, Microsome; settings: read-out: Stability
[12] = Metabolic stability in human microsomes assessed as parent compound remaining after 15 mins; assay type: ADME, Microsome; settings: read-out: Stability
[13] = Metabolic stability in rat microsomes assessed as parent compound remaining after 15 mins; assay type: ADME, Microsome; settings: read-out: Stability
[14] = Metabolic stability in human microsomes assessed as parent compound remaining after 30 mins; assay type: ADME, Microsome; settings: read-out: Stability
[15] = Metabolic stability in rat microsomes assessed as parent compound remaining after 30 mins; assay type: ADME, Microsome; settings: read-out: Stability
[16] = Metabolic stability in human microsomes assessed as parent compound remaining after 45 mins; assay type: ADME, Microsome; settings: read-out: Stability
[17] = Metabolic stability in rat microsomes assessed as parent compound remaining after 45 mins; assay type: ADME, Microsome; settings: read-out: Stability
[18] = Clearance in human; assay type: ADME
[19] = Half life in rat microsomes; settings: in vitro
[20] = Clearance in rat microsomes; settings: in vitro
[21] = target: Cyclin-dependent kinase 1 (Homo sapiens, UniProt P06493)
Description: Inhibition of CDK1 (unknown origin)

CDK2/Cyclin A2 = CDK2/Cyclin A2 (Homo sapiens, UniProt P24941); assay: Inhibition of CDK2/CyclinA (unknown origin) assessed as reduction in TAMRA tagged peptide substrate phosphorylation by fluorescence polarization assay; assay type: protein-complex assay
[22] = Tmax in human; assay type: ADME
[23] = Protein binding in human plasma; assay type: ADME, cell-free; settings: read-out: PPB (converted)
[24] = target: Homeodomain-interacting protein kinase 1 (Homo sapiens, UniProt Q86Z02); assay: Inhibition of wild-type human partial length HIPK1 (M146 to I555 residues) expressed in mammalian expression system assessed as residual activity at 50 nM by Kinomescan method relative to control
[25] = target: Calcium/calmodulin-dependent protein kinase type 1 (Homo sapiens, UniProt Q14012); assay: Inhibition of wild-type human full length CAMK1A (M1 to L370 residues) expressed in bacterial expression system assessed as residual activity at 50 nM by Kinomescan method relative to control
[26] = Oral bioavailability in human at 125 mg; assay type: ADME, organism-based; settings: in vivo
[27] = Tmax in human at 125 mg, po; assay type: ADME; settings: in vivo
[28] = Protein binding in human plasma at 125 mg, po; assay type: ADME, cell-free; settings: read-out: PPB (converted)

Homeodomain-interacting protein kinase 1, sequence (Q86Z02 whole entry, the tested form may be a part): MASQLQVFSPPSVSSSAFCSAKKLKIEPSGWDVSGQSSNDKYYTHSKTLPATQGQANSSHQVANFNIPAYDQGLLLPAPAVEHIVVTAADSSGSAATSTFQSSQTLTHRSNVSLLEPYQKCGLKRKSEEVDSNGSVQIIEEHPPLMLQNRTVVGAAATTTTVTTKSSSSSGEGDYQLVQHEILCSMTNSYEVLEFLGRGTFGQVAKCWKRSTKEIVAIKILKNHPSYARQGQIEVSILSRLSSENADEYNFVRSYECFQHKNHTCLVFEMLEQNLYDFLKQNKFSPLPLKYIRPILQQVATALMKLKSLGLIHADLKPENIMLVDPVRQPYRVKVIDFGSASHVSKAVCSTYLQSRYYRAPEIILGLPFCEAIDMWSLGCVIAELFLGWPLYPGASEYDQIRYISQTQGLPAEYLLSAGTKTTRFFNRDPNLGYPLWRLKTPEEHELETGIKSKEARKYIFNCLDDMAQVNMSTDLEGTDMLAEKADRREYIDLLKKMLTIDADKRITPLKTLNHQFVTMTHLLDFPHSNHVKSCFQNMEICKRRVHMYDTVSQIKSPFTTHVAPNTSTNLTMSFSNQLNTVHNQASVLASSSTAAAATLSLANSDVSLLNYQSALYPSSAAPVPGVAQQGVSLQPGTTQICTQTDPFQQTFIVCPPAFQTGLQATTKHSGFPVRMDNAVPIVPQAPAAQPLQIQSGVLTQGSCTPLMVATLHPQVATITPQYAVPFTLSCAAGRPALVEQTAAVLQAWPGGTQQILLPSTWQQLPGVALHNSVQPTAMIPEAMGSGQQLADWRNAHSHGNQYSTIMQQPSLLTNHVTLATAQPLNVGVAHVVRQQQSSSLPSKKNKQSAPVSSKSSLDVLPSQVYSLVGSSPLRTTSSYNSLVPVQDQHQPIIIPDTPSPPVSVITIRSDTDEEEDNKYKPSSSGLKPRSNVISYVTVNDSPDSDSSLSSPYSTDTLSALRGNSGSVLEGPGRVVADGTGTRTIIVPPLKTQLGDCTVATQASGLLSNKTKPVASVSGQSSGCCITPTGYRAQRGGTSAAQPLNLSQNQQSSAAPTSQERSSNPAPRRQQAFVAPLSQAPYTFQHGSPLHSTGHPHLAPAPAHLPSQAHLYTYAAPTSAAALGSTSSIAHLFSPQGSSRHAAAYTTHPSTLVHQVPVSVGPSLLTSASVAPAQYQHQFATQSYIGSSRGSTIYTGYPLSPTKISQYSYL
Calcium/calmodulin-dependent protein kinase type 1, sequence (Q14012 whole entry, the tested form may be a part): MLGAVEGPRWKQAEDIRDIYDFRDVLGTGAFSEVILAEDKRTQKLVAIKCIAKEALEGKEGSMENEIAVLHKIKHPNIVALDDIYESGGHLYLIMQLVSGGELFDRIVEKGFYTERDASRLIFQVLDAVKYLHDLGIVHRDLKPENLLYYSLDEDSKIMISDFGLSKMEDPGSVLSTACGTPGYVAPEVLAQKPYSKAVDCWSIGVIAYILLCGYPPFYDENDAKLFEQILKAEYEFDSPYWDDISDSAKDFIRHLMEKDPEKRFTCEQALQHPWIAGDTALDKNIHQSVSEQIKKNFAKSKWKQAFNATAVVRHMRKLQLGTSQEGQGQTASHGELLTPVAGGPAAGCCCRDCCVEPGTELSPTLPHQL
Cyclin-dependent kinase 1, sequence (P06493 whole entry): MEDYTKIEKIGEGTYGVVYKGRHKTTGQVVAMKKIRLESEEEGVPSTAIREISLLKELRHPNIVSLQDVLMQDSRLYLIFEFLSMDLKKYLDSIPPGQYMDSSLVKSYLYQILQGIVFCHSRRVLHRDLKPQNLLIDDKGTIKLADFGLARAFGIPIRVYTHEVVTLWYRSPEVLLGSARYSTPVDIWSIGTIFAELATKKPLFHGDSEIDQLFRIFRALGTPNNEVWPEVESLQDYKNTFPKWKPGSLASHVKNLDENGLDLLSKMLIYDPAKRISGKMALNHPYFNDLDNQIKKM

| remaining at 0 h [8] [%] | remaining at 0 h [9] [%] | remaining at 5 min [10] [%] | remaining at 5 min [11] [%] | remaining at 0.25 h [12] [%] | remaining at 0.25 h [13] [%] | remaining at 0.5 h [14] [%] | remaining at 0.5 h [15] [%] | remaining at 0.75 h [16] [%] | remaining at 0.75 h [17] [%] | clearance [18] [mL/min/kg] | half-life [19] [h] | clearance [20] [mL/min/kg] | Structure (SMILES) | other results |
| --- | --- | --- | --- | --- | --- | --- | --- | --- | --- | --- | --- | --- | --- | --- |
| – | – | – | – | – | – | – | – | – | – | – | – | – | [2H]C([2H])([2H])N(C(=O)c1cc2cnc(Nc3ccc(N4CCNCC4)cn3)nc2n1C1CCCC1)C([2H])([2H])[2H] | AUC ([1]; 7 h): 0.883 µM·h; clearance [2]: 37 mL/min/kg; Vd [3]: 8.6 L/kg; half-life [4]: 3.2 h; AUC [5]: 5.432 µM·h; Tmax [6]: 2 h; F [7]: 55% |
| 100 | 100 | 80.3 | 92.2 | 47.9 | 86 | 21.3 | 69.9 | 9.86 | 57.6 | 130 | 0.956 | 43.3 | [2H]C([2H])([2H])C([2H])([2H])N1C([2H])([2H])C([2H])([2H])N(Cc2ccc(Nc3ncc(F)c(-c4cc(F)c5nc(C)n(C(C)C)c5c4)n3)nc2)C([2H])([2H])C1([2H])[2H] | – |
| 100 | 100 | 79.4 | 92.7 | 43.3 | 83 | 16.4 | 65.9 | 6.48 | 51.3 | 155 | 0.785 | 52.7 | [2H]c1nc(Nc2ncc(F)c(-c3cc(F)c4nc(C)n(C(C)C)c4c3)n2)c([2H])c([2H])c1CN1CCN(C([2H])([2H])C([2H])([2H])[2H])CC1 | – |
| 100 | 100 | 77.7 | 93.8 | 42.4 | 83.4 | 16 | 66.9 | 6.21 | 51.3 | 156 | 0.784 | 52.8 | [2H]C([2H])([2H])C([2H])([2H])N1CCN(Cc2ccc(Nc3ncc(F)c(-c4cc(F)c5nc(C)n(C(C)C)c5c4)n3)nc2)CC1 | – |
| – | – | – | – | – | – | – | – | – | – | – | – | – | CN(C)C(=O)c1cc2cnc(Nc3ccc(N4CCNCC4)cc3)nc2n1C1CCCC1 | IC50 [21]: > 1600 nM; IC50 (CDK2/Cyclin A2): > 1400 nM |
| 100 | 100 | 76.1 | 94.1 | 38.9 | 81 | 13 | 61.6 | 4.76 | 45.6 | 172 | 0.658 | 62.9 | CCN1CCN(Cc2ccc(Nc3ncc(F)c(-c4cc(F)c5nc(C)n(C(C)C)c5c4)n3)nc2)CC1 [ABEMACICLIB] | Tmax [22]: 4 to 24 h; fraction unbound [23]: 0.04; Ki [24]: < 10 nM; Ki [25]: < 10 nM |
| – | – | – | – | – | – | – | – | – | – | – | – | – | CC(=O)c1c(C)c2cnc(Nc3ccc(N4CCNCC4)cn3)nc2n(C2CCCC2)c1=O [PALBOCICLIB] | bioavailability [26]: 46%; Tmax [27]: 6 to 12 h; fraction unbound [28]: 0.15 |
| – | – | – | – | – | – | – | – | – | – | – | – | – | CN(C)C(=O)c1cc2cnc(Nc3ccc(N4CCNCC4)cn3)nc2n1C1CCCC1 [RIBOCICLIB] | Tmax [22]: 1 to 4 h; fraction unbound [23]: 0.3; AUC(0-t) at 7 h ([1]; Sprague-Dawley): 1.03 µM·h; half-life [4]: 2.3 h; AUC [5]: 1.618 µM·h; Tmax [6]: 1.5 h |
